Test [1] can be described thus: Anti-oxidant effect by using DPPH. The format is biochemical. The note with it: read-out: DPPH anti-oxidant effect (IC50); concentration decreasing absorbance at 517 nm to 50%; 30 min, room temperature. How it is done:
DPPH (1,1-diphenyl-2-picrylhydrazyl) is a stable free radical and has a purple color. […] Herein, the term “IC50” refers to the concentration of a compound which decreases absorbance at 517 nm to 50% of the original value.
180 μl of DPPH solution (200 μM in DMSO) was dispensed into each well of a 96-well plate, and 20 μl of compounds, which was serially diluted two-fold from 2,000 μM, was added thereto. They were then well mixed and kept at room temperature for 30 minutes. After 30 minutes, O.D. value at 517 nm was measured with a spectraMAX ELISA reader.

The test system of test [2] is H9C2 cells. Put plainly: Cell protection effect against oxidative stress induced by tBOOH (SRB staining). The format is cell-based. Conditions: Rattus norvegicus, 400 μM tBOOH 2 hrs, concentration protecting 50% of cells from necrosis. How it is done: It is known that tertiary-butylhydroperoxide (tBOOH) induces cell necrosis by causing oxidative stress in various cells. […] H9C2 cells were dispensed into each well of a 96-well plate (1.5×10 ^4 cells/100 μl/well). The next day, the cells were pretreated with each compound and then treated with tBOOH (final concentration: 400 μM) for 2 hrs. 50 μl of formaldehyde was added to each well to fix the cells. Cells were fixed for 30 minutes and washed with distilled water three times. Then, the plate was completely dried in a 50° C. dry oven and SRB solution was added thereto to stain remaining protein. The plate was washed with 1% acetic acid and dried. […] Herein, the term “IC50” refers to the concentration of compound which protects 50% of cells from necrosis induced by tBOOH treatment.

The nature of test [3]: Direct anti-oxidant effect on H2O2 (DHR123 probe, cell-free). The format is biochemical. The note with it: DHR123 1.25 μM, 2 hrs. The method, then: (§1) 10 μl of DHR123 probe (final concentration: 1.25 μM) was added to 10 μl of each compound which was diluted with 100 μl of DMEM complete media. H2O2 and tBOOH were added as the concentration shown in the following Table 5 and after 2 hrs, fluorescence at wavelengths (480 nm (ex)/538 nm (em)) was measured with spectraMax gemini. Herein, the term “IC25” refers to the concentration of compound which causes 25% decrease of fluorescence assuming the amount emitted by oxidation of DHR123 caused by H2O2 or tBOOH was 100%.

Test [4] is described as follows: Direct anti-oxidant effect on tBOOH (DHR123 probe, cell-free). The test is classed as biochemical. Conditions: DHR123 1.25 μM, 2 hrs. The method, then:
as §1

Test [5] can be described thus: Removal capacity of ONOO− (peroxynitrite) by using dihydrorhodamine 123. The format is biochemical. The note with it: 50% inhibition of DHR123 oxidation by 1 μM ONOO−. How it is done: ONOO^− (peroxynitrite), which is known as a kind of RNS, plays a very important role in oxidative stress. Thus, it is very important to evaluate the removal capacity of ONOO^− of necrosis inhibitors. It is well known that DHR123 probe is oxidized by ONOO^−. Thus, by using such a property, the capacity of each compound was measured.
10 μl of each compound, which was serially diluted 3-fold from 50 μM, was dispensed into each well of a 96-well plate, and then 170 μl of assay mixture (10 μM DHR123, 1×PBS, 100 μM DPTA without ONOO^−) was added to each well. Finally, 20 μl of ONOO^− solution (final concentration: 1 μM) was added to initiate a reaction. Herein, the term “IC50” refers to the concentration of compounds which causes 50% inhibition of oxidation of DHR123 by ONOO^−.

Test [6] has as its system H9C2 cells. Put plainly: Anti-oxidant effect by using dihydrorhodamine 123 in tBOOH-treated H9C2 cells. The note with it: 1 hr pretreatment, 400 μM tBOOH 2 hrs, 25% inhibition of DHR123 fluorescence. The format is cell-based. The method, then: Dihydrorhodamine 123 itself is nonfluorescent but is converted to fluorescent rhodamine 123 when it is oxidized by ROS (reactive oxygen species) or RNS (reactive nitrogen species). […] H9C2 cells were dispensed into each well of a 96-well plate (1.5×10^4 cells/100 μl/well). The next day, the cells were pretreated with each compound, which was serially diluted 3-fold from the highest concentration, for 1 hr, and then treated with 10 μl of DHR123 12.5 μM stock solution (final concentration: 1.25 μM) in 37° C. incubator for 30 minutes. The cells were then immediately treated with 400 μM tBOOH and incubated for 2 hrs. Then, fluorescence, which was excited at 480 nm and emitted at 538 nm, was measured with a spectraMAX Gemini microplate reader. […] PBS. Then 100 μl of PBS was added to each well of the 96-well plate and fluorescence of each cell was measured by immunofluorescence microscopy (fluorescence microscope: Olympus) (Because of DHR123 in cells, fluorescence is emitted in proportion to oxidation). In addition, inhibition of the generation of superoxide was measured with MitoSOX red probe (final concentration: 5 μM) as the same method.

In the case of `O=C(O)C[C@H]1CSC(c2cc3cccc(NCC4CCOCC4)c3[nH]2)=N1` [Compound 8, ((S)-2-{7-[(tetrahydropyran-4-ylmethyl)-amino]-1H-indol-2-yl}-4,5-dihydro-thiazol-4-yl)-acetic acid], in test [1], the IC50 is 20.5 µM.
For `Cc1cc(NCC2CCOCC2)c2[nH]c(C3=N[C@@H](CC(=O)O)CS3)cc2c1` [Compound 14, ((S)-2-{5-methyl-7-[(tetrahydropyran-4-ylmethyl)-amino]-1H-indol-2-yl}-4,5-dihydro-thiazol-4-yl)-acetic acid], the figures for the concentration for half-maximal inhibition (IC50) (in test [1]; in the test on H9C2 cells [2]) were 28 µM and 0.72 µM, respectively.
For `O=S1(=O)CCN(Cc2cc(N(CC3CCOCC3)CC3CCOCC3)c3[nH]c(-c4ccccc4)cc3c2)CC1` [Compound 11, [5-(1,1-dioxo-thiomorpholin-4-yl)methyl-2-phenyl-1H-indol-7-yl]-bis-[(tetrahydropyran-4-yl)methyl]-amine], the 50% inhibitory concentration (IC50) in test [1] is 12.5 µM.
As to `O=C1CN(CC[C@H]2CSC(c3cc4cc(Oc5ccccc5)cc(NC5CCCC5)c4[nH]3)=N2)CCN1` [Compound 6, 4-{2-[(S)-2-(7-cyclopentylamino-5-phenoxy-1H-indol-2-yl)-4,5-dihydro-thiazol-4-yl]-ethyl}-piperazin-2-one], the results for the concentration for half-maximal inhibition (IC50) (in test [1]; in the test on H9C2 cells [2]) were 23 µM and 0.13 µM, respectively.
The corresponding values for `Cc1cc(NC2CCOCC2)c2[nH]c(C3=N[C@@H](CC(=O)O)CS3)cc2c1` [Compound 2, {(S)-2-[5-methyl-7-(tetrahydropyran-4-ylamino)-1H-indol-2-yl]-4,5-dihydro-thiazol-4-yl}-acetic acid] are 24 µM and 6.5 µM.
`Cc1cc(NC2CCCC2)c2[nH]c(C3=N[C@@H](CC(=O)O)CO3)cc2c1` [Compound 3, [(S)-2-(7-cyclopentylamino-5-methyl-1H-indol-2-yl)-4,5-dihydro-oxazol-4-yl]-acetic acid]: in test [3], the “IC25(μM) H2O2 (0.3 mM)” value came out at 2.2 µM and the “IC25(μM) H2O2 (0.6 mM)” value is 2.15 µM. Moreover, in test [4], the “IC25(μM) tBOOH (0.2 mM)” value came to 2 µM and the “IC25(μM) tBOOH (0.4 mM)” value was determined as 2.4 µM. The 50% inhibitory concentration (IC50) in test [1] amounted to 17.5 µM.
For `O=C(O)C[C@H]1CSC(c2cc3cc(Oc4ccccc4)cc(NC4CCCC4)c3[nH]2)=N1` [Compound 5, [(S)-2-(7-cyclopentylamino-5-phenoxy-1H-indol-2-yl)-4,5-dihydro-thiazol-4-yl]-acetic acid], the IC50 in test [5] was determined as 3.4 µM; in test [1], 20 µM.
Turning to `c1ccc(-c2nc3cccc(NC4CCCC4)c3[nH]2)cc1` [Example 1, cyclopentyl-(2-phenyl-3H -benzimidazol-4-yl)-amine], 0.6 µM corresponded to half-maximal inhibition in the test on H9C2 cells [2] (IC50).
As for `O=S1(=O)CCN(Cc2cc(NC3CCOCC3)c3[nH]c(-c4ccccc4)cc3c2)CC1` [Compound 9, (tetrahydropyran-4-yl)-[2-phenyl-5-(1,1-dioxo-thiomorpholin-4-yl)methyl-1H-indol-7-yl]-amine], in the test on H9C2 cells [6], the “IC25 (μM), anti-oxidant effect by using DHR 123” value (“IC25 (μM), anti-oxidant effect” for short) was 0.10 µM. In the test on H9C2 cells [2], this compound gave a concentration for half-maximal inhibition (IC50) of less than 0.2 µM.
Turning to `O=C(C1CCCOC1)N1CCC(Nc2cc(CN3CCS(=O)(=O)CC3)cc3cc(-c4ccccc4)[nH]c23)CC1` (centres unmarked) [Compound 12, {4-[5-(1,1-dioxo-thiomorpholin-4-yl)methyl-2-phenyl-1H-indol-7-ylamino]-piperidin-1-yl}-(tetrahydropyran-3-yl)methanone], in test [5], the IC50 came out at 0.21 µM. Besides, in test [3], the “IC25(μM) H2O2 (0.3 mM)” value was 1.65 µM and the “IC25(μM) H2O2 (0.6 mM)” value worked out at 2 µM. Moreover, in test [4], the “IC25(μM) tBOOH (0.2 mM)” value came out at 1.95 µM and the “IC25(μM) tBOOH (0.4 mM)” value was 3 µM. Moreover, the “IC25 (μM), anti-oxidant effect” value in the test with H9C2 cells [6] amounted to 0.24 µM. Moreover, the IC50 in test [1] was determined as 19 µM.
Turning to `CS(=O)(=O)N1CCC(Nc2cc(CN3CCS(=O)(=O)CC3)cc3cc(-c4ccccc4)[nH]c23)CC1` [Compound 13, [5-(1,1-dioxo-thiomorpholin-4-yl)methyl-2-phenyl-1H-indol-7-yl]-(1-methylsulfonyl-piperidin-4-yl)-amine], the half-inhibitory concentration (IC50) in test [5] is 0.9 µM; in test [1], 17 µM; in the test on H9C2 cells [2], less than 0.2 µM. The “IC25 (μM), anti-oxidant effect” value in the test with H9C2 cells [6] was less than 0.1 µM.
As to `Cc1nnc2n1CCN(CC[C@]1(c3cc4cc(Oc5ccccc5)cc(NC5CCCC5)c4[nH]3)CSC=N1)C2` [Compound 7, cyclopentyl-(2-{(S)-4-[2-(3-methyl-5,6-dihydro-8H-[1,2,4]triazolo[4,3-a]pyrazin-7-yl)-ethyl]-4,5-dihydro-thiazol-4-yl}-5-phenoxy-1H-indol-7-yl)-amine], the IC50 in test [1] came out at 25 µM.
Still for that read-out and setting: the figure for `Cc1cc(NC2CCCC2)c2[nH]c(C3=N[C@@H](CC(=O)O)CS3)cc2c1` [Compound 1, [(S)-2-(7-cyclopentylamino-5-methyl-1H-indol-2-yl)-4,5-dihydro-thiazol-4-yl]-acetic acid] is 24 µM.
Regarding `c1ccc(-c2nc3cccc(NC4CCOCC4)c3[nH]2)cc1` [Example 2, (2-phenyl-3H-benzimidazol-4-yl)-(tetrahydro-pyran-4-yl)-amine], the IC50 in the test on H9C2 cells [2] amounted to 2 µM.
As to `O=C(O)C[C@H]1CSC(c2cc3cccc(NC4CCCC4)c3[nH]2)=N1` [Compound 4, [(S)-2-(7-cyclopentylamino-1H-indol-2-yl)-4,5-dihydro-thiazol-4-yl]-acetic acid], in test [3], the “IC25(μM) H2O2 (0.3 mM)” value stood at 2.3 µM and the “IC25(μM) H2O2 (0.6 mM)” value was 3.6 µM. Further, in test [4], the “IC25(μM) tBOOH (0.2 mM)” value was 3 µM and the “IC25(μM) tBOOH (0.4 mM)” value worked out at 5.8 µM. Moreover, the concentration for half-maximal inhibition (IC50) in test [1] worked out at 15 µM.
On to `O=S1(=O)CCN(Cc2cc(NCC3CCOCC3)c3[nH]c(-c4ccccc4)cc3c2)CC1` [Compound 10, [5-(1,1-dioxo-thiomorpholin-4-yl)methyl-2-phenyl-1H-indol-7-yl]-(tetrahydropyran-4-yl)methyl-amine], for which, in test [1], the IC50 came out at 22 µM.

The record behind these values is patent publication US10322135B2, “Pharmaceutical composition comprising indole compound” (LG CHEM, LTD., priority 2009, dated 2019).
